Converted amounts (≈) assume the structure as drawn.

Experimental findings from patent US8283361B2 (AstraZeneca AB, priority 2008, dated 2012) are described below.

One test deals with S. aureus GyrB ATPase (Staphylococcus aureus, UniProt P0A0K8). As to the kind of experiment: biochemical. As to conditions: compound at 1 μM; one value per test if tested more than once; read-out: % Inhibition of S. aureus GyrB ATPase. A digest of the protocol: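 IC50 values derive from 10-point titrations of compound (in DMSO). Phosphate formed from 250 μM ATP was quantified by acidic molybdate/malachite green after quenching.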
Chain of S. aureus GyrB ATPase (P0A0K8 whole entry): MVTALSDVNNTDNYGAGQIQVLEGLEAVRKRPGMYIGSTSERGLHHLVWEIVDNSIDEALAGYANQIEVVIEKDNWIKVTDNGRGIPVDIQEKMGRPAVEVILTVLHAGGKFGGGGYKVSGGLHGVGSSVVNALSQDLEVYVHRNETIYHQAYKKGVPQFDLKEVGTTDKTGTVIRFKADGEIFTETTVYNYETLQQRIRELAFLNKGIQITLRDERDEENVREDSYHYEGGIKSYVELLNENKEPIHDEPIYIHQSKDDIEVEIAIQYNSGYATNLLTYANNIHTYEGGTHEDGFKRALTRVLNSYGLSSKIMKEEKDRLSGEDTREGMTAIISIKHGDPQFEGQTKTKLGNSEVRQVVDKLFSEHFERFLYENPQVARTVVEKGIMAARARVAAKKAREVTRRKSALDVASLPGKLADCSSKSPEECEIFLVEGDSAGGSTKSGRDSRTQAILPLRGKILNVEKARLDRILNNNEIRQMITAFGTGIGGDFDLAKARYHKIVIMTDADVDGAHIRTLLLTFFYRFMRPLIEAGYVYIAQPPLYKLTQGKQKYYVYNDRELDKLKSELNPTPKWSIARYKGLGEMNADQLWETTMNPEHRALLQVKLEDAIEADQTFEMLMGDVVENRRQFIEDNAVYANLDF
Chain of S. aureus GyrB ATPase (P0AES4 whole entry, further chain): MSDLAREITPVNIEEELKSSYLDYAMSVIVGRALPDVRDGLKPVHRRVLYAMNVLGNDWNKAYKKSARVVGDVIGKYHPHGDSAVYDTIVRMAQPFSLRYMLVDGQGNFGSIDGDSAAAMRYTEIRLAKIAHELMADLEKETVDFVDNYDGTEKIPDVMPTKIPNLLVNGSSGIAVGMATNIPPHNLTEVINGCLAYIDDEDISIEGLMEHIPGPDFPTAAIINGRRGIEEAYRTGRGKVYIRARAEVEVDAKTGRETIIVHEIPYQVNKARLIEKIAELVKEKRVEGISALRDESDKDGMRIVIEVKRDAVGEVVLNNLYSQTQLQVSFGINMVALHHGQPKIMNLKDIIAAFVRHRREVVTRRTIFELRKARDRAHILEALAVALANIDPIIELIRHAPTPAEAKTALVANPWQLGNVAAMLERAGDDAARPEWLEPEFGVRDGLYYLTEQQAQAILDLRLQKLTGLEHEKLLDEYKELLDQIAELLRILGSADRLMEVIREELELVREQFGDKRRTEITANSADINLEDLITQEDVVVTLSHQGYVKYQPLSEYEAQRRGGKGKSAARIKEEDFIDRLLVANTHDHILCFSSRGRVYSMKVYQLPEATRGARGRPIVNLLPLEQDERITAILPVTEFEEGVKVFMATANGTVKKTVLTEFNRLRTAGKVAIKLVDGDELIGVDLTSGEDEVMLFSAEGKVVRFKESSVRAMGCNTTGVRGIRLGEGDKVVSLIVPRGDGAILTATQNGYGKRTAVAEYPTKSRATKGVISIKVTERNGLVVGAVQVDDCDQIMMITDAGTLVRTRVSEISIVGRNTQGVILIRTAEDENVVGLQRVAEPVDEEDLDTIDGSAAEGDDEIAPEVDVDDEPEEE
By inhibition is commonly meant the relative decrease from the control value, in per cent. In the case of `CCNC(=O)Nc1cc(-c2nc(C(F)(F)F)cs2)c(-c2ccc3c(=O)c(C(=O)O)cn(CC)c3c2)cn1` [Example 9, 1-ethyl-7-(6-(3-ethylureido)-4-(4-trifluoromethylthiazol-2-yl)pyridin-3-yl)-4-oxo-1,4-dihydroquinoline-3-carboxylic acid], the inhibition at 1 µM was 106%.

Turning to `CCNC(=O)Nc1cc(-c2nc(C(F)(F)F)cs2)c(-c2ccc3c(=O)c(C(=O)NCCO)cn(CC4CC4)c3c2)cn1` [Example 375, 1-(Cyclopropylmethyl)-7-{6-[(ethylcarbamoyl)amino]-4-[4-(trifluoromethyl)-1,3-thiazol-2-yl]pyridin-3-yl}-N-(2-hydroxyethyl)-4-oxo-1,4-dihydroquinoline-3-carboxamide], the inhibition at 1 µM was determined as 99%.

`CCNC(=O)Nc1cc(-c2nc(C(F)(F)F)cs2)c(-c2ccc3c(=O)c(C(=O)NCCCO)cn(CC4CC4)c3c2)cn1` [Example 376, 1-(Cyclopropylmethyl)-7-{6-[(ethylcarbamoyl)amino]-4-[4-(trifluoromethyl)-1,3-thiazol-2-yl]pyridin-3-yl}-N-(3-hydroxypropyl)-4-oxo-1,4-dihydroquinoline-3-carboxamide]: the inhibition at 1 µM amounted to 108%.

As for `CCNC(=O)Nc1cc(-c2nc(C(F)(F)F)cs2)c(-c2ccc3c(=O)c(C(=O)NCCN(C)C)cn(CC4CC4)c3c2)cn1` [Example 377, 1-(Cyclopropylmethyl)-N-[2-(dimethylamino)ethyl]-7-{6-[(ethylcarbamoyl)amino]-4-[4-(trifluoromethyl)-1,3-thiazol-2-yl]pyridin-3-yl}-4-oxo-1,4-dihydroquinoline-3-carboxamide], the inhibition at 1 µM stood at 106%.

With `CCNC(=O)Nc1cc(-c2nc(C(F)(F)F)cs2)c(-c2ccc3c(=O)c(C(=O)NCCN4CCOCC4)cn(CC4CC4)c3c2)cn1` [Example 378, 1-(Cyclopropylmethyl)-7-{6-[(ethylcarbamoyl)amino]-4-[4-(trifluoromethyl)-1,3-thiazol-2-yl]pyridin-3-yl}-N-[2-(morpholin-4-yl)ethyl]-4-oxo-1,4-dihydroquinoline-3-carboxamide], the inhibition at 1 µM came to 107%.

For the compound `CCNC(=O)Nc1cc(-c2nc(C(F)(F)F)cs2)c(-c2ccc3c(=O)c(C(=O)NCCN4CCN(C)CC4)cn(CC4CC4)c3c2)cn1` [Example 379, 1-(Cyclopropylmethyl)-7-{6-[(ethylcarbamoyl)amino]-4-[4-(trifluoromethyl)-1,3-thiazol-2-yl]pyridin-3-yl}-N-[2-(4-methylpiperazin-1-yl)ethyl]-4-oxo-1,4-dihydroquinoline-3-carboxamide], the inhibition at 1 µM came out at 97%.

The test system of the next test is Streptococcus pneumoniae. The test can be described thus: Bacterial susceptibility testing in liquid media (MIC). Type of test: cell-based. The following applies: against Streptococcus pneumoniae; lowest concentration reducing growth by 80% or more. The source says:
Compounds may be tested for antimicrobial activity by susceptibility testing in liquid media. Compounds may be dissolved in dimethylsulfoxide and tested in 10 doubling dilutions in the susceptibility assays. The organisms used in the assay may be grown overnight on suitable agar media and then suspended in a liquid medium appropriate for the growth of the organism. The suspension can be a 0.5 McFarland and a further 1 in 10 dilution can be made into the same liquid medium to prepare the final organism suspension in 100 μL. Plates can be incubated under appropriate conditions at 37° C. for 24 hrs prior to reading. The Minimum Inhibitory Concentration (MIC) may be determined as the lowest drug concentration able to reduce growth by 80% or more.
The MIC is the lowest concentration that inhibits growth of the organism. Regarding `CCNC(=O)Nc1cc(-c2nc(C(F)(F)F)cs2)c(-c2ccc3c(=O)c(C(=O)O)cn(CC)c3c2)cn1` [Example 9, 1-ethyl-7-(6-(3-ethylureido)-4-(4-trifluoromethylthiazol-2-yl)pyridin-3-yl)-4-oxo-1,4-dihydroquinoline-3-carboxylic acid], the lowest concentration to inhibit growth (MIC) was 0.02 µM (≈ 0.0106 µg/mL).
